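Tested at 5 concentrations; 48 h exposure; 96-well plates; endpoints linearly interpolated, else capped at highest concentration. GI50 is the concentration that inhibits growth by half. Definition used: TGI = concentration required for complete inhibition of growth.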
Assays:
Experiment in all cases: NCI tumour cell line growth inhibition, 48 h
786-0 renal = tested on: 786-0 renal
A498 renal = tested on: A498 renal
A549 NSCLC = tested on: A549 NSCLC
ACHN renal = tested on: ACHN renal
BT-549 breast = tested on: BT-549 breast
CAKI-1 renal = tested on: CAKI-1 renal
CCRF-CEM leukemia = tested on: CCRF-CEM leukemia
COLO 205 colon = tested on: COLO 205 colon
DU-145 prostate = tested on: DU-145 prostate
EKVX NSCLC = tested on: EKVX NSCLC
HCC-2998 colon = tested on: HCC-2998 colon
HCT-116 colon = tested on: HCT-116 colon
HCT-15 colon = tested on: HCT-15 colon
HL-60(TB) leukemia = tested on: HL-60(TB) leukemia
HOP-62 NSCLC = tested on: HOP-62 NSCLC
HOP-92 NSCLC = tested on: HOP-92 NSCLC
HS 578T breast = tested on: HS 578T breast
HT29 colon = tested on: HT29 colon
IGROV1 ovarian = tested on: IGROV1 ovarian
K-562 leukemia = tested on: K-562 leukemia
KM12 colon = tested on: KM12 colon
LOX IMVI melanoma = tested on: LOX IMVI melanoma
M14 melanoma = tested on: M14 melanoma
MALME-3M melanoma = tested on: MALME-3M melanoma
MCF7 breast = tested on: MCF7 breast
MDA-MB-231 breast = tested on: MDA-MB-231 breast
MDA-MB-435 = tested on: MDA-MB-435
MOLT-4 leukemia = tested on: MOLT-4 leukemia
NCI-H226 lung = tested on: NCI-H226 lung
NCI-H23 lung = tested on: NCI-H23 lung
NCI-H460 lung = tested on: NCI-H460 lung
NCI-H522 lung = tested on: NCI-H522 lung
NCI/ADR-RES ovarian = tested on: NCI/ADR-RES ovarian
OVCAR-3 ovarian = tested on: OVCAR-3 ovarian
OVCAR-4 ovarian = tested on: OVCAR-4 ovarian
OVCAR-5 ovarian = tested on: OVCAR-5 ovarian
OVCAR-8 ovarian = tested on: OVCAR-8 ovarian
PC-3 prostate = tested on: PC-3 prostate
RPMI-8226 leukemia = tested on: RPMI-8226 leukemia
RXF 393 renal = tested on: RXF 393 renal
SF-268 CNS = tested on: SF-268 CNS
SF-295 CNS = tested on: SF-295 CNS
SF-539 CNS = tested on: SF-539 CNS
SK-MEL-2 melanoma = tested on: SK-MEL-2 melanoma
SK-MEL-28 melanoma = tested on: SK-MEL-28 melanoma
SK-MEL-5 melanoma = tested on: SK-MEL-5 melanoma
SK-OV-3 ovarian = tested on: SK-OV-3 ovarian
SN12C renal = tested on: SN12C renal
SNB-19 CNS = tested on: SNB-19 CNS
SNB-75 CNS = tested on: SNB-75 CNS
SR leukemia = tested on: SR leukemia
SW-620 colon = tested on: SW-620 colon
T-47D breast = tested on: T-47D breast
TK-10 renal = tested on: TK-10 renal
U251 CNS = tested on: U251 CNS
UACC-257 melanoma = tested on: UACC-257 melanoma
UACC-62 melanoma = tested on: UACC-62 melanoma
UO-31 renal = tested on: UO-31 renal

Clc1ccc(/C=C2\CCCC3C2=Nc2ccccc2NC3c2ccc(Cl)cc2)cc1 (stereo unspecified)
GI50 (786-0 renal): 3.48 µM
TGI (786-0 renal): 16.2 µM
GI50 (A498 renal): 2.15 µM
TGI (A498 renal): 5.79 µM
GI50 (A549 NSCLC): 2.88 µM
TGI (A549 NSCLC): 9.11 µM
GI50 (ACHN renal): 4.42 µM
TGI (ACHN renal): > 25.4 µM
GI50 (BT-549 breast): 2.24 µM
TGI (BT-549 breast): 6.81 µM
GI50 (CAKI-1 renal): 3.95 µM
TGI (CAKI-1 renal): 69.9 µM
GI50 (CCRF-CEM leukemia): 3.18 µM
TGI (CCRF-CEM leukemia): > 35.9 µM
GI50 (COLO 205 colon): 3.11 µM
TGI (COLO 205 colon): 8.2 µM
GI50 (DU-145 prostate): 4.39 µM
TGI (DU-145 prostate): 23.9 µM
GI50 (EKVX NSCLC): 4.07 µM
TGI (EKVX NSCLC): 52.5 µM
GI50 (HCC-2998 colon): 1.92 µM
TGI (HCC-2998 colon): 3.55 µM
GI50 (HCT-116 colon): 1.59 µM
TGI (HCT-116 colon): 3.02 µM
GI50 (HCT-15 colon): 2.59 µM
TGI (HCT-15 colon): 7.47 µM
GI50 (HL-60(TB) leukemia): 4.85 µM
TGI (HL-60(TB) leukemia): 33 µM
GI50 (HOP-62 NSCLC): 3.86 µM
TGI (HOP-62 NSCLC): 22.1 µM
GI50 (HOP-92 NSCLC): 7.99 µM
TGI (HOP-92 NSCLC): 37.9 µM
GI50 (HS 578T breast): 4.04 µM
TGI (HS 578T breast): > 27.7 µM
GI50 (HT29 colon): 2.79 µM
TGI (HT29 colon): 7.95 µM
GI50 (IGROV1 ovarian): 3.3 µM
TGI (IGROV1 ovarian): 10.2 µM
GI50 (K-562 leukemia): 3.91 µM
TGI (K-562 leukemia): 27.8 µM
GI50 (KM12 colon): 2.02 µM
TGI (KM12 colon): 3.99 µM
GI50 (LOX IMVI melanoma): 1.74 µM
TGI (LOX IMVI melanoma): 3.18 µM
GI50 (M14 melanoma): 2.07 µM
TGI (M14 melanoma): 5.19 µM
GI50 (MALME-3M melanoma): 16.8 µM
TGI (MALME-3M melanoma): 49.2 µM
GI50 (MCF7 breast): 2.92 µM
TGI (MCF7 breast): > 34 µM
GI50 (MDA-MB-231 breast): 6.99 µM
TGI (MDA-MB-231 breast): 41.7 µM
GI50 (MDA-MB-435): 2.87 µM
TGI (MDA-MB-435): > 27.6 µM
GI50 (MOLT-4 leukemia): 4.52 µM
TGI (MOLT-4 leukemia): 30.4 µM
GI50 (NCI-H226 lung): 1.91 µM
TGI (NCI-H226 lung): 4.19 µM
GI50 (NCI-H23 lung): 3.43 µM
TGI (NCI-H23 lung): 15.7 µM
GI50 (NCI-H460 lung): 4.47 µM
TGI (NCI-H460 lung): 16.4 µM
GI50 (NCI-H522 lung): 11.6 µM
TGI (NCI-H522 lung): 28.5 µM
GI50 (NCI/ADR-RES ovarian): 4.66 µM
TGI (NCI/ADR-RES ovarian): 52.3 µM
GI50 (OVCAR-3 ovarian): 3.13 µM
TGI (OVCAR-3 ovarian): 9.12 µM
GI50 (OVCAR-4 ovarian): 3.77 µM
TGI (OVCAR-4 ovarian): > 52.7 µM
GI50 (OVCAR-5 ovarian): 8.63 µM
TGI (OVCAR-5 ovarian): 22.3 µM
GI50 (OVCAR-8 ovarian): 2.75 µM
TGI (OVCAR-8 ovarian): 8.31 µM
GI50 (PC-3 prostate): 4.45 µM
TGI (PC-3 prostate): > 41.5 µM
GI50 (RPMI-8226 leukemia): 1.85 µM
TGI (RPMI-8226 leukemia): 5.13 µM
GI50 (RXF 393 renal): 1.81 µM
TGI (RXF 393 renal): 3.47 µM
GI50 (SF-268 CNS): 4.05 µM
TGI (SF-268 CNS): > 77.7 µM
GI50 (SF-295 CNS): 2.71 µM
TGI (SF-295 CNS): 8.46 µM
GI50 (SF-539 CNS): 4.75 µM
TGI (SF-539 CNS): 47.4 µM
GI50 (SK-MEL-2 melanoma): 31.3 µM
TGI (SK-MEL-2 melanoma): > 64.8 µM
GI50 (SK-MEL-28 melanoma): 7.15 µM
TGI (SK-MEL-28 melanoma): 28.4 µM
GI50 (SK-MEL-5 melanoma): 2.91 µM
TGI (SK-MEL-5 melanoma): 7.19 µM
GI50 (SK-OV-3 ovarian): 7.49 µM
TGI (SK-OV-3 ovarian): > 100 µM
GI50 (SN12C renal): 6.81 µM
TGI (SN12C renal): 34.2 µM
GI50 (SNB-19 CNS): 7.01 µM
TGI (SNB-19 CNS): > 100 µM
GI50 (SNB-75 CNS): 12.3 µM
TGI (SNB-75 CNS): 57.5 µM
GI50 (SR leukemia): 2.6 µM
TGI (SR leukemia): 6.64 µM
GI50 (SW-620 colon): 2.96 µM
TGI (SW-620 colon): 10.6 µM
GI50 (T-47D breast): 6.27 µM
TGI (T-47D breast): > 87.9 µM
GI50 (TK-10 renal): 11 µM
TGI (TK-10 renal): > 58.5 µM
GI50 (U251 CNS): 2.05 µM
TGI (U251 CNS): 4.71 µM
GI50 (UACC-257 melanoma): 2.14 µM
TGI (UACC-257 melanoma): 5.88 µM
GI50 (UACC-62 melanoma): 6.7 µM
TGI (UACC-62 melanoma): 25.4 µM
GI50 (UO-31 renal): 3.15 µM
TGI (UO-31 renal): 12.5 µM
